According to patent US8344008B2 (Janssen Pharmaceutica NV, priority 2007, dated 2013):

Biological target: T1, recombinant human LTA4 hydrolase (rhLTA4H) (Homo sapiens, UniProt P09960)
T1 construct: made in house; host or cells: Spodoptera frugiperda (Sf-9) cells, baculovirus (pFastBac1)
T1 sequence (P09960 1-611): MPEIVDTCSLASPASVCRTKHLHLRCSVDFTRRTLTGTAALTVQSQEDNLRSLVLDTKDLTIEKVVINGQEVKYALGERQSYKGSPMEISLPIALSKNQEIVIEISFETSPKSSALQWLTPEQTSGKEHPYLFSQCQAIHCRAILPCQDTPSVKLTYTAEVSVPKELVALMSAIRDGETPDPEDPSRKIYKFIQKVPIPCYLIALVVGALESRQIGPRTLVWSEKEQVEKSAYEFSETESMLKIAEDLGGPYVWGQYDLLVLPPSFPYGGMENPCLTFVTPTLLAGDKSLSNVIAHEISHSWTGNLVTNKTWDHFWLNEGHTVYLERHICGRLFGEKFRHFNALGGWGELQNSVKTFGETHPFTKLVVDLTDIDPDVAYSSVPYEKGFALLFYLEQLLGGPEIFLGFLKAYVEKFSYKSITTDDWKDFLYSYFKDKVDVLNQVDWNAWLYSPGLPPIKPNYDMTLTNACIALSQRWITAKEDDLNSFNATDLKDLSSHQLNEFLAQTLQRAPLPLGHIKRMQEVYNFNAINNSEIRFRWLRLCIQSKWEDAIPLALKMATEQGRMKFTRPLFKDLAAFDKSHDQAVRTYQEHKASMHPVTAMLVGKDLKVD
Assay: Recombinant Human LTA4 Hydrolase Assay for LTA4 Hydrolase Inhibitor Activity
Type: biochemical
Conditions: average of results obtained; LTB4 quantified by enzyme-linked immunoassay
Method: Biological Methods: Recombinant Human LTA4 Hydrolase Assay for LTA4 Hydrolase Inhibitor Activity
Compounds of the present invention were tested for LTA4 hydrolase inhibitor activity against recombinant human LTA4 hydrolase (rhLTA4H). Vectors were prepared and used to express rhLTA4H essentially as follows: LTA4 hydrolase encoding DNA was amplified by polymerase chain reaction (PCR) using a human placental cDNA library as a template. Oligonucleotide primers for the PCR reaction were based on the 5′-end, and the complement of the 3′-end, of the published nucleotide sequence for the coding region of the human LTA4 hydrolase gene (C. D. Funk et al., Proc. Natl. Acad. Sci. USA 1987, 84:6677-6681). The amplified 1.9 kb DNA fragment encoding LTA4 hydrolase was isolated and cloned into the pFastBac1 vector (Invitrogen). Recombinant baculovirus was generated as described by the manufacturer, and used to infect Spodoptera frugiperda (Sf-9) cells. Recombinant LTA4 hydrolase enzyme was purified from the infected Sf-9 cells essentially as described by J. K. Gierse et al. (Protein Expression and Purification 1993, 4:358-366). The purified enzyme solution was adjusted to contain 0.29 mg/mL LTA4 hydrolase, 50 mM Tris (pH 8.0), 150 mM NaCl, 5 mM dithiothreitol, 50% glycerol, and EDTA-free Complete protease inhibitor cocktail (Roche). The specific activity of the enzyme was about 3.8 μmol/min/mg.
LTA4 substrate was prepared from the methyl ester of LTA4 (Cayman Chemical) by treatment with 67 equiv of NaOH under nitrogen at rt for 40 min. The LTA4 substrate in its free acid form was kept frozen at −80° C. until needed. Each compound was diluted to different concentrations in assay buffer (0.1 M potassium phosphate (pH 7.4), 5 mg/mL fatty acid free BSA) containing 10% DMSO. A 25-uL aliquot of each compound dilution was incubated for 10 min at rt with an equal volume of assay buffer containing 36 ng of recombinant human LTA4H. The solution was then adjusted to 200 μL with assay buffer. LTA4 (free acid) was thawed and diluted in assay buffer to a concentration of 357 ng/mL, and 25 μL (9 ng) of LTA4 substrate was added to the reaction mixture (total volume=225 μL) at time zero. Each reaction was carried out at rt for 10 min. The reaction was stopped by diluting 10 μL of the reaction mixture with 200 μL of assay buffer. LTB4 was quantified in the diluted sample by a commercially available enzyme-linked immunoassay (Cayman Chemical Co.), as recommended by the manufacturer. Positive controls, under essentially identical conditions but without addition of an inhibitor compound, and negative controls, containing all assay components except enzyme, were routinely run in each experiment. […]
Results for the compounds tested in this assay are presented in Table 1 as an average of results obtained.

Ki [nM]	Structure (SMILES)
7	NC(=O)N1C[C@H]2C[C@@H]1CN2Cc1ccc(Oc2nc3ccccc3s2)cc1 [Example 34, (R,R)-5-[4-(Benzothiazol-2-yloxy)-benzyl]-2,5-diaza-bicyclo[2.2.1]heptane-2-carboxylic acid amide]
93	NC(=O)N1C[C@@H]2C[C@H]1CN2Cc1ccc(Cc2nc3ccccc3s2)cc1 [Example 35, (S,S)-5-(4-Benzothiazol-2-ylmethyl-benzyl)-2,5-diaza-bicyclo[2.2.1]heptane-2-carboxylic acid amide]
94	NC(=O)N[C@H]1C[C@H]2CC[C@@H](C1)N2Cc1ccc(Cc2nc3ccccc3s2)cc1 [Example 36, meso-endo-[8-(4-Benzothiazol-2-ylmethyl-benzyl)-8-aza-bicyclo[3.2.1]oct-3-yl]-urea]
44	NC(=O)N[C@H]1C[C@H]2CC[C@@H](C1)N2Cc1ccc(Cc2nc3ccccc3o2)cc1 [Example 37, meso-endo-[8-(4-Benzooxazol-2-ylmethyl-benzyl)-8-aza-bicyclo[3.2.1]oct-3-yl]-urea]
3	NC(=O)N1C[C@@H]2C[C@H]1CN2CCc1ccc(Oc2nc3ccccc3s2)cc1 [Example 38, (S,S)-5-{2-[4-(Benzothiazol-2-yloxy)-phenyl]-ethyl}-2,5-diaza-bicyclo[2.2.1]heptane-2-carboxylic acid amide]
100	NC(=O)N1C[C@@H]2C[C@H]1CN2CCc1cccc(Oc2nc3ccccc3s2)c1 [Example 39, (S,S)-5{2-[3-(Benzothiazol-2-yloxy)-phenyl]-ethyl}2,5-diaza-bicyclo[2.2.1]heptane-2-carboxylic acid amide]
38	NC(=O)N1C[C@@H]2C[C@H]1CN2CCOc1ccc(Oc2nc3ccccc3s2)cc1 [Example 40, (S,S)-5-{2-[4-(Benzothiazol-2-yloxy)-phenoxy]-ethyl}-2,5-diaza-bicyclo[2.2.1]heptane-2-carboxylic acid amide]
15	COCC(=O)N1C[C@@H]2C[C@H]1CN2Cc1ccc(Oc2nc3ccccc3s2)cc1 [Example 41, (S,S)-1-{5-[4-(Benzothiazol-2-yloxy)-benzyl]-2,5-diaza-bicyclo[2.2.1]hept-2-yl}-2-methoxy-ethanone]
34	COCC(=O)N1C[C@@H]2C[C@H]1CN2CCc1ccc(Oc2nc3ccccc3s2)cc1 [Example 42]
442	COCC(=O)N1C[C@@H]2C[C@H]1CN2CCc1cccc(Oc2nc3ccccc3s2)c1 [Example 43]
38	O=C(CO)N1C[C@H]2C[C@@H]1CN2Cc1ccc(Oc2nc3ccccc3s2)cc1 [Example 44, (R,R)-1-{5-[4-(Benzothiazol-2-yloxy)-benzyl]-2,5-diaza-bicyclo[2.2.1]hept-2-yl}-2-hydroxy-ethanone]
190	CS(=O)(=O)N1C[C@@H]2C[C@H]1CN2Cc1ccc(Cc2nc3ccccc3s2)cc1 [Example 45, (S,S)-2-[4-(5-Methanesulfonyl-2,5-diaza-bicyclo[2.2.1]hept-2-ylmethyl)-benzyl]-benzothiazole]
32	CS(=O)(=O)N1C[C@H]2C[C@@H]1CN2Cc1ccc(Oc2nc3ccccc3s2)cc1 [Example 46, (R,R)-2-[4-(5-Methanesulfonyl-2,5-diaza-bicyclo[2.2.1]hept-2-ylmethyl)-phenoxy]-benzothiazole]
57	CS(=O)(=O)N1C[C@@H]2C[C@H]1CN2CCc1ccc(Oc2nc3ccccc3s2)cc1 [Example 47, (S,S)-2-{4-[2-(5-Methanesulfonyl-2,5-diaza-bicyclo[2.2.1]hept-2-yl)-ethyl]-phenoxy}-benzothiazole]
1170	CS(=O)(=O)N1C[C@@H]2C[C@H]1CN2CCc1cccc(Oc2nc3ccccc3s2)c1 [Example 48, (S,S)-2-{3-[2-(5-Methanesulfonyl-2,5-diaza-bicyclo[2.2.1]hept-2-yl)-ethyl}phenoxy]benzothiazole]
20	CS(=O)(=O)N1C[C@@H]2C[C@H]1CN2CCOc1ccc(Oc2nc3ccccc3s2)cc1 [Example 49, (S,S)-2-{4-[2-(5-Methanesulfonyl-2,5-diaza-bicyclo[2.2.1]hept-2-yl)-ethoxy]-phenoxy}-benzothiazole]
9	CC(C)(C)OC(=O)CN1C[C@@H]2C[C@H]1CN2Cc1ccc(Oc2nc3ccccc3s2)cc1 [Example 50, (S,S)-{5-[4-(Benzothiazol-2-yloxy)-benzyl]-2,5-diaza-bicyclo[2.2.1]hept-2-yl}-acetic acid tert-butyl ester]
92	CC(=O)N1C2CCC1CN(Cc1ccc(Oc3nc4ccccc4s3)cc1)C2 [Example 51, meso-1-{3-[4-(Benzothiazol-2-yloxy)-benzyl]-3,8-diaza-bicyclo[3.2.1]oct-8-yl}-ethanone]
2	CC(=O)N[C@H]1C[C@H]2CC[C@@H](C1)N2Cc1ccc(Oc2nc3ccccc3s2)cc1 [Example 52, meso-endo-N-{8-[4-(Benzothiazol-2-yloxy)-benzyl]-8-aza-bicyclo[3.2.1]oct-3-yl}-acetamide]
117	CC(C)(O)C(=O)N1C2CCC1CN(Cc1ccc(Oc3nc4ccccc4s3)cc1)C2 [Example 53, meso-1-{3-[4-(Benzothiazol-2-yloxy)-benzyl]-3,8-diaza-bicyclo[3.2.1]oct-8-yl}-2-hydroxy-2-methyl-propan-1-one]
4	CC(C)(O)C(=O)N[C@H]1C[C@H]2CC[C@@H](C1)N2Cc1ccc(Oc2nc3ccccc3s2)cc1 [Example 54, meso-endo-N-{8-[4-(Benzothiazol-2-yloxy)-benzyl]-8-aza-bicyclo[3.2.1]oct-3-yl}-2-hydroxy-2-methyl-propionamide]
116	NCC(=O)N1C2CCC1CN(Cc1ccc(Oc3nc4ccccc4s3)cc1)C2 [Example 55, meso-2-Amino-1-{3-[4-(benzothiazol-2-yloxy)-benzyl]-3,8-diaza-bicyclo[3.2.1]oct-8-yl}-ethanone]
30	NCC(=O)N[C@H]1C[C@H]2CC[C@@H](C1)N2Cc1ccc(Oc2nc3ccccc3s2)cc1 [Example 56, meso-endo-2-Amino-N-{8-[4-(benzothiazol-2-yloxy)-benzyl]-8-aza-bicyclo[3.2.1]oct-3-yl}-acetamide]
173	CS(=O)(=O)N1C2CCC1CN(Cc1ccc(Oc3nc4ccccc4s3)cc1)C2 [Example 57, meso-2-[4-(8-Methanesulfonyl-3,8-diaza-bicyclo[3.2.1]oct-3-ylmethyl)-phenoxy]-benzothiazole]
0.2	CS(=O)(=O)N[C@H]1C[C@H]2CC[C@@H](C1)N2Cc1ccc(Oc2nc3ccccc3s2)cc1 [Example 58, meso-endo-N-{8-[4-(Benzothiazol-2-yloxy)-benzyl]-8-aza-bicyclo[3.2.1]oct-3-yl}-methanesulfonamide]
174	NC(=O)N1C2CCC1CN(Cc1ccc(Oc3nc4ccccc4s3)cc1)C2 [Example 59, meso-3-[4-(Benzothiazol-2-yloxy)-benzyl]-3,8-diaza-bicyclo[3.2.1]octane-8-carboxylic acid amide]
2	NC(=O)N[C@H]1C[C@H]2CC[C@@H](C1)N2Cc1ccc(Oc2nc3ccccc3s2)cc1 [Example 60, meso-endo-{8-[4-(Benzothiazol-2-yloxy)-benzyl]-8-aza-bicyclo[3.2.1]oct-3-yl}-urea]
27	O=C(c1cccs1)N1C[C@@H]2C[C@H]1CN2Cc1ccc(Oc2nc3ccccc3s2)cc1 [Example 61, (S,S)-{5-[4-(Benzothiazol-2-yloxy)-benzyl]-2,5-diaza-bicyclo[2.2.1]hept-2-yl}-thiophen-2-yl-methanone]
